In one assay the test system is MGC-803. The assay can be described thus: Effect on LSD1 expression in human MGC803 cells up to 2.5 uM after 5 days by DAPI staining based immunofluorescence assay. It is filed as functional, cell-based.
The target of assay [1] is Lysine-specific histone demethylase 1A (Homo sapiens, UniProt O60341).
Description: Inhibition of recombinant full length LSD1 (unknown origin) expressed in Escherichia coli BL21 (DE) using H3K4me2 substrate by fluorescence assay

The source made the active and inactive calls. No cut-off for these calls is given here.

Our source for the Activity and IC50 values is ChEMBL document CHEMBL4002561, “Discovery of resveratrol derivatives as novel LSD1 inhibitors: Design, synthesis and their biological evaluation” (Eur J Med Chem, 2017).

Turning to `N/C(=N\O)c1ccc(/C=C/c2cc(O)c(O)cc2Br)cc1`, the outcome in the assay with MGC-803 was inactive. As usually defined, the IC50 is the concentration that gives 50% inhibition. A high value points to lower potency. The compound `Oc1ccc(/C=C/c2cc(O)cc(O)c2)cc1` [RESVERATROL] had an IC50 in assay [1] of 10.2 µM. With `N/C(=N\O)c1cccc(/C=C/c2cc(O)c(O)cc2Br)c1`, in the assay with MGC-803, the result was inactive.
